Results on one compound are retold here after patent US5910504A, “Hetero-aromatic ring substituted phenyloxazolidinone antimicrobials” (Pharmacia & Upjohn, priority 1997, dated 1999).

Converted amounts (≈) assume the structure as drawn. “And” between values parts separate entries of the source, which are not always exact repeats. Identical values can stand only once.

In one assay the test system is S. pneumoniae, UC 9912. Put plainly: In vitro activity: minimum inhibitory concentration (MIC) by agar dilution, S. pneumoniae. Particulars: Streptococcus pneumoniae, UC9912, read-out: Minimum Inhibitory Concentration, S. pneumoniae, UC 9912. The assay is classed as cell-based. The text has this:
(§1) The oxazolidinone antibacterial agents of this invention have useful activity against a variety of organisms. The in vitro activity of compounds of this invention can be assessed by standard testing procedures such as the determination of minimum inhibitory concentration (MIC) by agar dilution as desribed in "Methods for Dilution Antimicrobial Susceptibility Tests for Bacteria That Grow Aerobically" (MFT) published January 1983 by the National Committee for Clinical Laboratory Standards, 771 East Lancaster Avenue, Villanova, Pa. 19084, USA. The activity of selected compounds of this invention against Staphylococcus aureus and Streptococcus pneumoniae are shown in Table 1.

The test system of assay [1] is S. aureus, UC 9213. Put plainly: In vitro activity: minimum inhibitory concentration (MIC) by agar dilution, S. aureus. Format: cell-based. Particulars: Staphylococcus aureus, UC9213, read-out: Minimum Inhibitory Concentration, S. aureus, UC 9213.
Text: as §1

Assay [2] relates to S. aureus, UC 9213. Put plainly: In vivo antimicrobial activity, Murine Assay procedure. On the set-up: species or system Staphylococcus aureus (infected female mice). Particulars: S. aureus UC 9213, female mice, oral or subcutaneous. On the procedure:
Antimicrobial activity was tested in vivo using the Murine Assay procedure. Groups of female mice (six mice of 18-20 grams each) were injected intraperitoneally with bacteria which were thawed just prior to use and suspended in brain heart infusion with 4% brewers yeast UC9213 (Staphylococcus aureus) or brain heart infusion (Streptococcus species). Antibiotic treatment at six dose levels per drug was administered one hour and five hours after infection by either oral intubation or subcutaneous ("subcut.") routes. Survival was observed daily for six days. ED50 values based on mortality ratios were calculated using probit analysis. The subject compounds were compared against a well-known antimicrobial (Vancomycin) as a control.

For the compound `CN[C@H](CC(C)C)C(=O)N[C@H]1C(=O)N[C@@H](CC(N)=O)C(=O)N[C@H]2C(=O)N[C@H]3C(=O)N[C@H](C(=O)N[C@H](C(=O)O)c4cc(O)cc(O)c4-c4cc3ccc4O)[C@H](O)c3ccc(c(Cl)c3)Oc3cc2cc(c3O[C@@H]2O[C@H](CO)[C@@H](O)[C@H](O)[C@H]2O[C@H]2C[C@](C)(N)[C@H](O)[C@H](C)O2)Oc2ccc(cc2Cl)[C@H]1O` [Vancomycin, reference compound], the MIC worked out at 0.5 µg/mL (≈ 0.345 µM) in the assay with S. pneumoniae, UC 9912 and 1 µg/mL (≈ 0.69 µM) in the assay on S. aureus, UC 9213 [1]. Also, in the assay on S. aureus, UC 9213 [2] (Staphylococcus aureus, UC9213, 144 h, read-out: Control, ED50, control drug run alongside each test compound), the ED50 turned out to be 2.2 mg/kg. Moreover, in the assay with S. aureus, UC 9213 [2] (control drug run alongside each test compound, 8640 min), the “Control, ED50” value was 2.4 mg/kg and 2.0 mg/kg and 1.2 mg/kg.
